Experimental data published in PubChem BioAssay (NCI).
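Interpolation was linear, between the two tested concentrations surrounding the appropriate level; five concentrations were tested over 48 hours in 96-well plates. GI50: concentration for 50% inhibition of growth. TGI denotes the concentration required for complete inhibition of growth.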

Key:
Test in all cases: DTP human tumour cell line panel, 48 h
MCF7 breast = system: MCF7 breast
SW-620 colon = system: SW-620 colon
SF-295 CNS = system: SF-295 CNS
BT-549 breast = system: BT-549 breast
HCC-2998 colon = system: HCC-2998 colon
RPMI-8226 leukemia = system: RPMI-8226 leukemia
U251 CNS = system: U251 CNS
TK-10 renal = system: TK-10 renal
OVCAR-4 ovarian = system: OVCAR-4 ovarian
M14 melanoma = system: M14 melanoma

Row | SMILES | GI50 (MCF7 breast) [µM] | TGI (MCF7 breast) [µM] | GI50 (SW-620 colon) [µM] | TGI (SW-620 colon) [µM] | GI50 (SF-295 CNS) [µM] | TGI (SF-295 CNS) [µM] | GI50 (BT-549 breast) [µM] | TGI (BT-549 breast) [µM] | GI50 (HCC-2998 colon) [µM] | TGI (HCC-2998 colon) [µM] | GI50 (RPMI-8226 leukemia) [µM] | TGI (RPMI-8226 leukemia) [µM] | GI50 (U251 CNS) [µM] | TGI (U251 CNS) [µM] | GI50 (TK-10 renal) [µM] | TGI (TK-10 renal) [µM] | GI50 (OVCAR-4 ovarian) [µM] | TGI (OVCAR-4 ovarian) [µM] | GI50 (M14 melanoma) [µM] | TGI (M14 melanoma) [µM]
1 | CCC1OC(/C(C)=C/C(C)/C=C/C2C(C)C2/C=C/C2OC(CC(=O)O)CC(O)C2O)CC=C1C (stereo not given) | > 50 | > 50 | > 50 | > 50 | > 50 | > 50 | > 50 | > 50 | > 50 | > 50 | > 50 | > 50 | > 50 | > 50 | 9.6 | > 50 | > 50 | > 50 | > 50 | > 50
2 | Cc1cc(S(=O)(=O)Nc2nc3cc(-c4ccsc4)sc3c(=O)n2N)c(S)cc1Cl | 46.9 | > 100 | > 100 | > 100 | 29.7 | > 100 | – | – | 48.4 | > 100 | > 100 | > 100 | 34.1 | > 100 | > 100 | > 100 | 69.6 | > 100 | > 100 | > 100
3 | C#CCOc1cccc(Nc2ncc3ncn(C4CCN(C(=O)CCl)C4)c3n2)c1 (stereo not given) | 59.2 | > 62.5 | 15.4 | > 62.5 | > 62.5 | > 62.5 | 18.3 | > 62.5 | > 62.5 | > 62.5 | > 62.5 | > 62.5 | > 62.5 | > 62.5 | > 62.5 | > 62.5 | – | – | > 62.5 | > 62.5
4 | Cc1cc(O)c2c(c1)C(=O)C(c1c(C)cc3c(c1O)C(=O)C1OC1C3=O)=CC2=O (stereo not given) | – | 12.1 | – | 7.54 | – | 32.6 | – | 6.32 | – | 17.2 | – | 3.52 | – | 20.6 | – | 3.36 | – | 11.1 | – | 8.12
5 | CCC(=O)OC1=CN2C(=NC(c3ccc(N)cc3)=CC2c2cc(OC)c(OC)c(OC)c2)S1 (stereo not given) | 2.86 | 14.4 | 2.89 | 10.7 | 3.48 | 13.1 | 4.57 | 19.4 | 4.47 | 15.7 | 2.44 | 10 | 3.49 | 13.8 | 4 | 16.1 | 4.14 | 31.9 | 4.18 | 17.6
6 | O=C(Nc1cccc([N+](=O)[O-])c1)c1cc2ccccc2cc1O | 1.36 | 6.21 | 2.72 | 17 | 1.96 | 5.33 | 1.55 | 5.39 | 2.16 | 6.11 | 0.146 | 1.06 | 1.48 | 9.27 | 4.03 | 9.46 | 2.61 | > 100 | 1.58 | 6.68
7 | C(#Cc1ccccc1C#Cc1ccccn1)c1ccccn1 | 14.3 | 38.2 | 21.2 | 56.7 | 16.8 | 33.3 | 23.6 | 45.2 | 4.77 | 14.5 | – | – | 11.5 | 25.3 | 6.54 | 22.3 | 38 | > 100 | 22.1 | > 100
8 | COc1cc(CNC(=O)CCSc2nc3ccccc3c(=O)n2Cc2cc(OC)c(OC)c(OC)c2)cc(OC)c1OC | 3.46 | > 100 | 4.31 | > 100 | 4.36 | > 100 | 4.9 | 44.1 | 13 | 94.6 | 4 | 67.2 | 5.34 | 59.5 | 11 | 44.4 | 10.8 | 77.1 | 2.23 | 5.8
9 | CC(C)N(Cc1ccccc1)S(=O)(=O)c1n[nH]c(C(C)(C)C)n1 | – | > 100 | – | > 100 | – | > 100 | – | > 100 | – | – | – | > 100 | – | > 100 | – | > 100 | – | > 100 | – | > 100
10 | CN(C)c1ccc(N=C(C#N)c2nc(N)nc(N3CCN(c4ccccc4)CC3)n2)cc1 | 21 | 37.4 | 22.1 | > 50 | 14.7 | > 43.7 | 23.6 | > 50 | 26.6 | > 50 | > 26.8 | > 50 | > 35.1 | > 50 | > 30.6 | > 50 | 18.9 | > 34.1 | > 50 | > 50
11 | CC[C@H](C)[C@H](NC(=O)c1nccn1C)C(=O)N(C)[C@H](C[C@@H](OC(C)=O)c1nc(C(=O)N[C@@H](Cc2ccccc2)C[C@H](C)C(=O)OC)cs1)C(C)C | 0.187 | > 33.3 | 1.33 | > 33.3 | 0.639 | 2.07 | 0.398 | 3.94 | 1.08 | > 33.3 | 0.531 | 12.1 | 1.38 | > 33.3 | 7.49 | > 33.3 | 1.88 | > 33.3 | 0.557 | 1.6
12 | COc1cc(N=Nc2cccc(S(N)(=O)=O)c2)c2ccccc2c1N | – | 20.5 | – | > 95.3 | – | 26.6 | – | 20.7 | – | 20.7 | – | 57.3 | – | 22.5 | – | 30.1 | – | 27.8 | – | 3.43
13 | Cc1ccc(/C=C2\CN(Cc3cn(CCNc4ccnc5cc(Cl)ccc45)nn3)C/C(=C\c3ccc(C)cc3)C2=O)cc1 | 1.62 | 3.46 | – | – | 1.99 | 3.73 | 1.89 | 3.35 | 1.92 | 3.44 | 1.82 | 4.98 | 1.57 | 3.01 | 1.91 | 3.36 | 1.66 | 3.57 | 2.2 | 4.62
14 | O=C(Nc1ccccc1C(=O)Nc1nccs1)c1ccccc1 | – | > 100 | – | > 100 | – | > 100 | – | > 100 | – | > 100 | – | > 100 | – | > 100 | – | > 100 | – | – | – | > 100
15 | CC1(C)N=C(N)N=C(N)N1c1ccc(OCCCCNC(=O)c2ccc(S(=O)(=O)F)cc2)c(Cl)c1 | 3.9 | > 100 | 3.51 | > 100 | 51.1 | > 100 | > 100 | > 100 | 35 | > 100 | 6.39 | > 100 | 5.65 | > 100 | – | – | 93.7 | > 100 | 8.89 | > 100
16 | O=S1(=O)CC(Br)C(Br)C1 (stereo not given) | 2.72 | 11.7 | – | – | 24.5 | > 100 | 5.4 | 18.5 | 14.9 | 28.9 | 12.3 | 41.2 | 7.28 | 23.6 | 3.77 | 11.9 | 3.11 | 18.4 | 5.67 | 20.8
17 | O=C(Nc1ccccc1C(=O)O)C(=O)C(C(=O)c1ccccc1-c1ccccc1)C1OC(=O)c2ccccc21 (stereo not given) | – | – | – | 56.6 | – | 53.5 | – | – | – | 30.6 | – | 98.2 | – | 28.9 | – | 29.6 | – | > 100 | – | 33.4
18 | O=C1C2=C(c3ccccc31)C(c1ccc(F)cc1)N1C(=O)CCSC1=N2 (stereo not given) | – | – | – | > 100 | – | > 100 | – | – | – | > 100 | – | > 100 | – | > 100 | – | > 100 | – | > 100 | – | > 100
19 | N=C1C(c2nc(-c3ccc(Br)cc3)cs2)=C(O)CN1CC1CCCO1 (stereo not given) | > 100 | > 100 | – | – | > 100 | > 100 | > 100 | > 100 | > 100 | > 100 | > 100 | > 100 | > 100 | > 100 | > 100 | > 100 | – | – | – | –
20 | CC(C)=CCC/C(C)=C/[C@H]1OC(=O)CC12C[C@H](O)C=CC2=O (stereo not given in full) | 0.421 | 1.29 | 0.446 | > 100 | 1.98 | 4.69 | 0.802 | 3.17 | 0.221 | 0.448 | 0.235 | 0.594 | 0.752 | 2.03 | 1.31 | 2.93 | – | – | 0.32 | 0.833
21 | C[C@H]1CCC/C=C/[C@@H]2C[C@H](O)C[C@H]2[C@H](O)[C@@H](SC2OC(CO)C(O)C(O)C2O)CC(=O)O1 (stereo not given in full) | 35.1 | > 100 | > 100 | > 100 | > 100 | > 100 | – | – | > 100 | > 100 | > 100 | > 100 | > 100 | > 100 | > 100 | > 100 | 54.1 | > 100 | 61.3 | > 100
22 | O=C(O)c1oc2cccc3c2c1CCC3 | – | – | – | > 100 | – | > 100 | – | – | – | > 100 | – | > 100 | – | > 100 | – | > 100 | – | > 100 | – | > 100
23 | C=Cc1cnc([N+](=O)[O-])n1C | – | > 100 | – | > 100 | – | > 100 | – | > 100 | – | > 100 | – | > 100 | – | > 100 | – | > 100 | – | – | – | > 100
24 | CCCCN(CCCC)C(=O)C(=O)CC(=O)/C=C/c1ccccc1 | – | – | – | > 100 | – | > 100 | – | – | – | > 100 | – | > 100 | – | > 100 | – | > 100 | – | > 100 | – | > 100
25 | CC(C)(O)CCC(O)C(C)(O)C1CCC2(O)C3=CC(=O)C4(O)CC(O)C(O)CC4(C)C3CCC12C (stereo not given) (tested in a mixture with another compound) | – | > 100 | – | > 100 | – | > 100 | – | > 100 | – | – | – | – | – | > 100 | – | > 100 | – | > 100 | – | > 100
26 | O=C(c1ccccc1)c1ccccc1C(=O)c1ccccc1 | 1.76 | 10.9 | 55.8 | > 100 | 31 | > 100 | 32 | > 100 | 32.3 | 85.3 | – | – | 39.4 | > 100 | 32.8 | > 100 | 36.7 | > 100 | 31.9 | > 100
27 | Cc1nc2sc(C(=O)Nc3cccc(Cl)c3C)c(N)c2cc1C(C)O (stereo not given) | 0.103 | > 53.2 | 0.127 | > 54.3 | 0.119 | > 41.6 | 0.475 | > 32.3 | 0.532 | 26.3 | 0.347 | > 94 | 0.223 | > 39.2 | – | – | 3.45 | > 68.4 | 0.341 | > 100
28 | COC(=O)C1=C(c2cc(OC)c(OC)c(OC)c2)O[C@H](c2ccc3c(c2)OCO3)[C@H]1COC(C)=O | – | – | – | > 100 | – | 41 | – | – | – | > 100 | – | > 100 | – | 63.5 | – | > 100 | – | > 100 | – | 43.3
29 | N#CC1CCc2c(c(-c3cn[nH]c3C(F)(F)F)nc3c(F)cc4[nH]ncc4c23)C1 (stereo not given) | 3.5 | 47.4 | 3.47 | 38 | 14 | 46.2 | 3.16 | 12.9 | 11 | 28.1 | 8.4 | 78.1 | 15.1 | > 100 | 6.28 | 57.9 | – | – | 3.88 | 21.7
30 | C=C1C(=O)O[C@H]2[C@H]1CC/C(COC(=O)/C=C/c1c[nH]c3ccccc13)=C\CC[C@@]1(C)O[C@@H]21 | 0.226 | 1.01 | 0.181 | 0.446 | 1.62 | 3.14 | 0.175 | 0.384 | – | – | 0.0332 | 0.123 | 0.212 | 0.528 | 0.279 | 0.709 | 0.207 | 0.546 | 0.221 | 0.572
